The source of these data is US20260363244A1, “HERBICIDAL COMPOSITIONS COMPRISING URACILS” (BASF SE, priority 2022, published 2026).

Each structure is given as a SMILES string. Where two headings read alike, the source gives them in different places.

Common to all, as to type: in vivo
One assay relates to Abutilon theophrasti. The experiment in a line: greenhouse post-emergence herbicidal activity, ABUTH. To be noted: read-out: % activity (solo application); for activity at 2 g/ha: 2 gai/ha. As for the experimental part: (§1) The following examples serve to illustrate the invention.
(§2) The culture containers used were plastic pots containing loamy sand with approximately 3.0% of humus as substrate. The seeds of the test plants were sown separately for each species.
(§3) For the post-emergence treatment, the test plants were grown to a plant height of from 3 to 15 cm, depending on the plant habit, and only then treated with the active compounds which had been suspended or emulsified in water. To this end, the test plants were either sown directly, and grown in the same containers, or they were first grown separately as seedlings and transplanted into the test containers a few days prior to treatment.
(§4) Depending on the species, the plants were kept at 10-25 °C and 20-35 °C, respectively. The test period extended over 2 to 4 weeks. During this time, the plants were tended and their response to the individual treatments was evaluated.
(§5) Evaluation was carried out using a scale from 0 to 100. 100 means no emergence of the plants, or complete destruction of at least the above-ground parts, and 0 means no damage or normal course of growth. A good herbicidal activity is given at values of at least 70, and very good herbicidal activity is given at values of at least 85.
(§6) The respective stated components A and B, and if appropriate, C were formulated as a 5% by weight strength emulsion concentrate and, with addition of the amount of solvent system, introduced into the spray liquor used for applying the active compound. In the examples, the solvent used was water.
(§7) In the examples below, using the method of S. R. Colby (1967) “Calculating synergistic and antagonistic responses of herbicide combinations”, Weeds 15, p. 22ff., the value E, which is expected if the activity of the individual active compounds is only additive, was calculated.
(§8) E=X+Y−(X·Y/100) • where • X=percent activity using active compound A at an application rate a; • Y=percent activity using active compound B at an application rate b; • E=expected activity (in %) by A+B at application rates a+b.
(§9) The plants used in the greenhouse experiments were of the following species
(§10) In this context, a.i. means active ingredient, based on 100% active ingredient.
(§11) As indicated the application was post emergent (POST) at the respective growth stage (GS) of the weed.
(§12) Assessment was at the indicated days after treatment (DAT).

The test system of the next assay is Avena fatua. The assay can be described thus: greenhouse post-emergence herbicidal activity, AVEFA. To be noted: read-out: % activity (solo application); for activity at 2 g/ha / activity at 4 g/ha: 168 h, GS 12-16, 7 DAT; for activity at 2 g/ha: 2 gai/ha; for activity at 4 g/ha: 4 gai/ha; for activity at 0.5 g/ha: 0.5 gai/ha. The procedure: as §1, §2, §3, §4, §5, §6, §7, §8, §9, §10, §11, §12

The next assay deals with Setaria faberi. The experiment in a line: greenhouse post-emergence herbicidal activity, SETFA. The conditions noted are these: Setaria faberi, post-emergence, read-out: % activity (solo application); for activity at 2 g/ha: 2 gai/ha; for activity at 4 g/ha: 4 gai/ha; for activity at […]: 0.25 gai/ha; for activity at 0.5 g/ha: 0.5 gai/ha. The procedure:
as §1, §2, §3, §4, §5, §6, §7, §8, §9, §10, §11, §12

In another assay the test system is Amaranthus tamariscinus. The experiment in a line: greenhouse post-emergence herbicidal activity, AMATA. The conditions noted are these: 0.25 gai/ha, read-out: % activity (solo application). The procedure:
as §1, §2, §3, §4, §5, §6, §7, §8, §9, §10, §11, §12

The subject of a further assay is Digitaria sanguinales. The experiment in a line: greenhouse post-emergence herbicidal activity, DIGSA. The conditions noted are these: for activity at […]: 0.25 gai/ha. The procedure:
as §1, §2, §3, §4, §5, §6, §7, §8, §9, §10, §11, §12

Another assay deals with Eleusine indica. The assay can be described thus: greenhouse post-emergence herbicidal activity, ELEIN. To be noted: 480 h, GS 12-16, 20 DAT, 0.25 gai/ha, read-out: % activity (solo application). The procedure:
as §1, §2, §3, §4, §5, §6, §7, §8, §9, §10, §11, §12

In another assay the test system is Kochia scoparia. The experiment in a line: greenhouse post-emergence herbicidal activity, KCHSC. The conditions noted are these: for % activity: solo application, KCHSC. The procedure: as §1, §2, §3, §4, §5, §6, §7, §8, §9, §10, §11, §12
A further assay relates to Setaria viridis. The assay can be described thus: greenhouse post-emergence herbicidal activity, SETVI. To be noted: for activity at 1 g/ha: 1 gai/ha; for % activity: solo application, SETVI, GS 11-33, 8 DAT, use rate 0.8 gai/ha. As for the experimental part:
as §1, §2, §3, §4, §5, §6, §7, §8, §9, §10, §11, §12

Another assay has as its system Commenline benghalensis. The experiment in a line: greenhouse post-emergence herbicidal activity, COMBE. The conditions noted are these: read-out: % activity (solo application); for activity at 0.5 g/ha: 0.5 gai/ha. As for the experimental part: as §1, §2, §3, §4, §5, §6, §7, §8, §9, §10, §11, §12
The subject of another assay is Echinocloa crus-galli. The assay can be described thus: greenhouse post-emergence herbicidal activity, ECHCG. The conditions noted are these: for % activity: solo application, ECHCG, GS 11-33, 20 DAT. The procedure: as §1, §2, §3, §4, §5, §6, §7, §8, §9, §10, §11, §12
The test system of another assay is Brachiaria decumbens. The assay can be described thus: greenhouse post-emergence herbicidal activity, BRADC. The conditions noted are these: solo application, BRADC, GS 11-33, 20 DAT, use rate 1.6 gai/ha. As for the experimental part: as §1, §2, §3, §4, §5, §6, §7, §8, §9, §10, §11, §12
A further assay relates to Lolium multiflorum. The assay can be described thus: greenhouse post-emergence herbicidal activity, LOLMU. To be noted: solo application, LOLMU, GS 11-33, 7 DAT, use rate 1.6 gai/ha. The procedure: as §1, §2, §3, §4, §5, §6, §7, §8, §9, §10, §11, §12
A further assay concerns Sorghum halepense. The assay can be described thus: greenhouse post-emergence herbicidal activity, SORHA. The conditions noted are these: solo application, SORHA, GS 11-33, 20 DAT, use rate 1.6 gai/ha. As for the experimental part:
as §1, §2, §3, §4, §5, §6, §7, §8, §9, §10, §11, §12

Where [1] appears, read: Digitaria, post-emergence, 480 h, GS 12-16, 20 DAT, read-out: % activity (solo application).
[2] abbreviates: 480 h, GS 12-16, 20 DAT, 1 gai/ha.

Regarding `C=C[C@]1(C(=O)N[C@@H]2CO[C@H](C(=O)OC)C2)CC(c2cc(F)cc(F)c2)=NO1` [(II.1.cis.A), methyl (2S,4S)-4-[[(5S)-3-(3,5-difluorophenyl)-5-vinyl-4H-isoxazole-5-carbonyl]amino]tetrahydrofuran-2-carboxylate], the activity at 2 g/ha in the assay with Abutilon theophrasti (168 h, GS 12-16, 7 DAT) was 15%; in the assay with Abutilon theophrasti (504 h, GS 12-16, 21 DAT) it was 0%; in the assay on Avena fatua it was 20%; in the assay on Setaria faberi (168 h, GS 12-16, 7 DAT), 70%; with Setaria faberi (504 h, GS 12-16, 21 DAT) it was 75%. Also, the activity at 4 g/ha worked out at 25% with Avena fatua; 70% in the assay on Setaria faberi (168 h, GS 12-16, 7 DAT); 85% with Setaria faberi (504 h, GS 12-16, 21 DAT).

As for `C=C[C@]1(C(=O)N[C@H]2CO[C@@H](C(=O)OC)C2)CC(c2cc(F)cc(F)c2)=NO1` [(II.1.cis.B), methyl (2R,4R)-4-[[(5S)-3-(3,5-difluorophenyl)-5-vinyl-4H-isoxazole-5-carbonyl]amino]tetrahydrofuran-2-carboxylate], the activity at 0.5 g/ha with Abutilon theophrasti (144 h, GS 12-16, 6 DAT, 0.5 gai/ha) is 0%; in the assay with Digitaria sanguinales (Digitaria, post-emergence, 480 h, GS 12-16, 20 DAT, 0.5 gai/ha, read-out: % activity (solo application)), 50%; with Kochia scoparia (Bassia scoparia, post-emergence, 480 h, GS 12-16, 20 DAT, 0.5 gai/ha, read-out: % activity (solo application)) it was 15%; in the assay with Setaria faberi (144 h, GS 12-16, 6 DAT), 55%; with Setaria faberi (480 h, GS 12-16, 20 DAT), 25%; with Setaria viridis (Setaria viridis, post-emergence, 480 h, GS 12-16, 20 DAT, 0.5 gai/ha, read-out: % activity (solo application)), 50%. Further, the activity at […] worked out at 15% with Amaranthus tamariscinus (144 h, GS 12-16, 6 DAT); 20% in the assay on Digitaria sanguinales (setting [1]); 20% with Eleusine indica; 35% in the assay with Setaria faberi (144 h, GS 12-16, 6 DAT); 20% with Setaria faberi (480 h, GS 12-16, 20 DAT). The activity at 2 g/ha in the assay on Avena fatua stood at 10%. Also, in the assay on Avena fatua, the activity at 4 g/ha came to 20%.

Consider `C=C[C@]1(C(=O)N[C@H]2C=C[C@@H](C(=O)OC)C2)CC(c2cc(F)cc(F)c2)=NO1` [(II.5.cis.B), methyl (1S,4R)-4-[[(5S)-3-(3,5-difluorophenyl)-5-vinyl-4H-isoxazole-5-carbonyl]amino]cyclopent-2-ene-1-carboxylate], for which the activity at […] with Amaranthus tamariscinus (144 h, GS 12-16, 6 DAT) was determined as 45%; in the assay with Amaranthus tamariscinus (480 h, GS 12-16, 20 DAT), 40%; in the assay with Commenline benghalensis (144 h, GS 12-16, 6 DAT, 0.25 gai/ha) it was 40%; in the assay on Digitaria sanguinales (setting [1]), 35%; with Echinocloa crus-galli (Echinochloa crus-galli, post-emergence, 144 h, GS 12-16, 6 DAT, 0.25 gai/ha, read-out: % activity (solo application)), 15%; with Setaria faberi (144 h, GS 12-16, 6 DAT), 40%. In the assay on Setaria faberi (480 h, GS 12-16, 20 DAT), the activity at […] amounted to 30%. The activity at 2 g/ha with Avena fatua was 40%. For the same compound, the activity at 0.5 g/ha with Commenline benghalensis (144 h, GS 12-16, 6 DAT) came to 55%; in the assay with Commenline benghalensis (480 h, GS 12-16, 20 DAT), 70%.

With `C[C@]1(C(=O)N[C@H]2C=C[C@@H](C(=O)O)C2)CC(c2cc(F)cc(F)c2)=NO1` [(II.8.cis.B), (1S,4R)-4-[[(5R)-3-(3,5-difluorophenyl)-5-methyl-4H-isoxazole-5-carbonyl]amino]cyclopent-2-ene-1-carboxylic acid], the activity at 0.5 g/ha with Avena fatua (144 h, GS 12-16, 6 DAT) came to 20%; in the assay with Avena fatua (480 h, GS 12-16, 20 DAT) it was 15%; in the assay with Commenline benghalensis (144 h, GS 12-16, 6 DAT), 15%; in the assay with Setaria faberi (144 h, GS 12-16, 6 DAT), 20%; in the assay on Setaria faberi (480 h, GS 12-16, 20 DAT), 30%. Further, the activity at 2 g/ha with Avena fatua turned out to be 30%. Also, the activity at 4 g/ha in the assay with Avena fatua is 30%. Further, the activity at 1 g/ha in the assay on Avena fatua (setting [2]) was 65%; with Commenline benghalensis (144 h, GS 12-16, 6 DAT, 1 gai/ha), 40%; in the assay with Echinocloa crus-galli (Echinochloa crus-galli, post-emergence, 144 h, GS 12-16, 6 DAT, 1 gai/ha, read-out: % activity (solo application)) it was 70%; in the assay with Kochia scoparia (Bassia scoparia, post-emergence, 480 h, GS 12-16, 20 DAT, 1 gai/ha, read-out: % activity (solo application)), 20%; in the assay on Setaria faberi (setting [2]), 50%; in the assay on Setaria viridis (Setaria viridis, post-emergence, 144 h, GS 12-16, 6 DAT, read-out: % activity (solo application)), 10%. For the same compound, the activity at 1 g/ha in the assay with Setaria viridis (Setaria viridis, post-emergence, 480 h, GS 12-16, 20 DAT, read-out: % activity (solo application)) was 20%.

For `CCOC(=O)COc1ncccc1Oc1nc(-n2c(=O)cc(C(F)(F)F)n(C)c2=O)c(F)cc1Cl` [I.6], the “% activity” value turned out to be 40% in the assay on Brachiaria decumbens; 50% with Digitaria sanguinales (solo application, DIGSA, GS 11-33, 20 DAT, use rate 1.6 gai/ha); 45% with Echinocloa crus-galli (use rate 1.6 gai/ha); 55% with Kochia scoparia (GS 11-33, 20 DAT, use rate 0.8 gai/ha); 15% with Lolium multiflorum; 30% in the assay on Setaria viridis. For the same compound, the “% activity” value in the assay on Sorghum halepense came to 10%.

Regarding `CCOC(=O)COc1ncccc1Oc1nc(-n2c(=O)cc(C(F)(F)F)n(C)c2=O)c(F)cc1Br` [I.9], the “% activity” value turned out to be 40% in the assay on Echinocloa crus-galli (use rate 0.4 gai/ha); 60% in the assay on Kochia scoparia (GS 11-33, 7 DAT, use rate 0.4 gai/ha); 75% in the assay with Setaria viridis.
